Reference: ChEMBL document CHEMBL1201862, “PubChem BioAssay data set” (2004)
Active and inactive are the calls of the source.

Assays:
[1] = target: T1, Tyrosine-protein phosphatase non-receptor type 7 (Homo sapiens, UniProt P35236); format: functional
T1 sequence (P35236 whole entry): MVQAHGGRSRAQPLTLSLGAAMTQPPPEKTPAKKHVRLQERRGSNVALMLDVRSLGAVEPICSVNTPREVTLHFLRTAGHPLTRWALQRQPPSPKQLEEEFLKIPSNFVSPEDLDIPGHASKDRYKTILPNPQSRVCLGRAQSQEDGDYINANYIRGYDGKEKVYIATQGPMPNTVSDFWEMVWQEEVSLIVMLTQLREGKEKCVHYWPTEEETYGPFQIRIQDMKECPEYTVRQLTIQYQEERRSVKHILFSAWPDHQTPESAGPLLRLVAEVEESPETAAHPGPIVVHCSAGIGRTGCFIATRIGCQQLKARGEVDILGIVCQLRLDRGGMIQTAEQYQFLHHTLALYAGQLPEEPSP

[2] = target: T2, Tyrosine-protein phosphatase non-receptor type 22 (Homo sapiens, UniProt Q9Y2R2); format: functional
T2 sequence (Q9Y2R2 whole entry): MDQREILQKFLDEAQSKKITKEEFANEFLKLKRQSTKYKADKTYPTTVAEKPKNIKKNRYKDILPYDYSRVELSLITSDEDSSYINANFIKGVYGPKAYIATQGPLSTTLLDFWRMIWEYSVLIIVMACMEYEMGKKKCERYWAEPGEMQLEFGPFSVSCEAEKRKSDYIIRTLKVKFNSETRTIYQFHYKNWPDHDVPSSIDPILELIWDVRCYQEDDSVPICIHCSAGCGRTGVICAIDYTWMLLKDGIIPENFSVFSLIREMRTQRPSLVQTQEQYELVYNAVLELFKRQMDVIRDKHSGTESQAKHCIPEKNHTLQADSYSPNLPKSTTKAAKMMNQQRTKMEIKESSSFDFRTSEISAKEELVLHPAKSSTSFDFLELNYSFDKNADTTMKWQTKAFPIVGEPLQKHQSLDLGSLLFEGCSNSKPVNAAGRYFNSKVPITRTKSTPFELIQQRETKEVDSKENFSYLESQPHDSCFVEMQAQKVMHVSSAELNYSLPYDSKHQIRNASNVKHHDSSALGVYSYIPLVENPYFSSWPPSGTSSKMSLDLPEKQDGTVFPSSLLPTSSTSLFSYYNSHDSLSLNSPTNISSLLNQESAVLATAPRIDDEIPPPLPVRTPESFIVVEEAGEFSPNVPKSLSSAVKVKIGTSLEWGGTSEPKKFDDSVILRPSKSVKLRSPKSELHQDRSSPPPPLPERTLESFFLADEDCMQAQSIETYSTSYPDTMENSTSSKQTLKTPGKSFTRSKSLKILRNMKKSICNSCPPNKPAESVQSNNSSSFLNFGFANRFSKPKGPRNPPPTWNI

[3] = target: T2, Tyrosine-protein phosphatase non-receptor type 22; format: functional; remark: listed apart in the source
[4] = alpha-synuclein stem-loop luciferase translation blockers – H4 neuroglioma cells, luminescence, confirmation (AID 1988); format: functional, cell-based
Mu-type opioid receptor = Mu-type opioid receptor (Homo sapiens, UniProt P35372); experiment: HTS Image-Based Screen for Agonists of the MOR Receptor. [Related pubchem assays (depositor defined):AID1777, AID1785, AID1786, AID2133]; format: functional;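 also: imaging of beta-arrestin GFP recruitment into spots after receptor activation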
Sequence of Mu-type opioid receptor (P35372 whole entry): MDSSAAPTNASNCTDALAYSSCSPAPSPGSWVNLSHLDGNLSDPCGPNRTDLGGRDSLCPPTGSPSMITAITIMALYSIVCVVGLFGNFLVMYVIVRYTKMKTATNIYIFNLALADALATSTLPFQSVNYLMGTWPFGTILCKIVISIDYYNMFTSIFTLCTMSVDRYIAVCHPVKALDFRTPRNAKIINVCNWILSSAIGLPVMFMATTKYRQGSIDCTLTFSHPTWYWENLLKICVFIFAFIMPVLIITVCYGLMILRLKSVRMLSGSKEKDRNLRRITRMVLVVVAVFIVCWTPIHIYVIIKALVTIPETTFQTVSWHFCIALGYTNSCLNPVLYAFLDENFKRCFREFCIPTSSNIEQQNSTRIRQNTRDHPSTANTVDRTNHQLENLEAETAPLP

[5] = NIH3T3 cell viability loss – ATP luminescence, mouse fibroblasts, counter-screen, dose response (AID 2010); format: functional, cell-based;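 also: cells exposed to compound for about 90 hours before reading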
Beta-galactosidase = Beta-galactosidase (Escherichia coli, UniProt Q8VNN2); format: functional
Sequence of Beta-galactosidase (Q8VNN2 whole entry): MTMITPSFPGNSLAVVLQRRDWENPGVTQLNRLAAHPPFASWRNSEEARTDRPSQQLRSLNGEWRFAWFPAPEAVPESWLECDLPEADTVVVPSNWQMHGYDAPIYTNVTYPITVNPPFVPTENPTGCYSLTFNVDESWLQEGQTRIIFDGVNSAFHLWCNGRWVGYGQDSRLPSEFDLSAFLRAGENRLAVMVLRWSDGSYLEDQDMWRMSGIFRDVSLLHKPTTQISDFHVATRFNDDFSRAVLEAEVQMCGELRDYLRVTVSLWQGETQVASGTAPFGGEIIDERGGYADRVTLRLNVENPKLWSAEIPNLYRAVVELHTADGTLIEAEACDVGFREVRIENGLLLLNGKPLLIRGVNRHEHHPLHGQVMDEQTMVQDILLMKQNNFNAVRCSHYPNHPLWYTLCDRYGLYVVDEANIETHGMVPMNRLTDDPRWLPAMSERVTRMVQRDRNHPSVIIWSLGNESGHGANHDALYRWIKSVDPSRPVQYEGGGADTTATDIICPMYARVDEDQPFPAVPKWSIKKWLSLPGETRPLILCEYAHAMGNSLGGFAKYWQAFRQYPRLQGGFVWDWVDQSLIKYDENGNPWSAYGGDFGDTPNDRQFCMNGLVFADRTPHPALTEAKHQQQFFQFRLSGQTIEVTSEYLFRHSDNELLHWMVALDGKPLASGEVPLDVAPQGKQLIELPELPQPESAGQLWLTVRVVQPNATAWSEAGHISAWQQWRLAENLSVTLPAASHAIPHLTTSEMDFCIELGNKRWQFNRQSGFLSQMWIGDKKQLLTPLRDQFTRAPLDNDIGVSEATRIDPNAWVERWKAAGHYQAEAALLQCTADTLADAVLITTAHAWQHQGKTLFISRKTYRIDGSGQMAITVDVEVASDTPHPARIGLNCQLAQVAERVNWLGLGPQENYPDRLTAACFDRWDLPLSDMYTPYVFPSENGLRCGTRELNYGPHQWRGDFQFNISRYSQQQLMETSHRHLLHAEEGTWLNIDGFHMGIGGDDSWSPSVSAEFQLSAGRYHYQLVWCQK

[6] = target: T3, Kappa-type opioid receptor (Homo sapiens, UniProt P41145); format: functional
T3 sequence (P41145 whole entry): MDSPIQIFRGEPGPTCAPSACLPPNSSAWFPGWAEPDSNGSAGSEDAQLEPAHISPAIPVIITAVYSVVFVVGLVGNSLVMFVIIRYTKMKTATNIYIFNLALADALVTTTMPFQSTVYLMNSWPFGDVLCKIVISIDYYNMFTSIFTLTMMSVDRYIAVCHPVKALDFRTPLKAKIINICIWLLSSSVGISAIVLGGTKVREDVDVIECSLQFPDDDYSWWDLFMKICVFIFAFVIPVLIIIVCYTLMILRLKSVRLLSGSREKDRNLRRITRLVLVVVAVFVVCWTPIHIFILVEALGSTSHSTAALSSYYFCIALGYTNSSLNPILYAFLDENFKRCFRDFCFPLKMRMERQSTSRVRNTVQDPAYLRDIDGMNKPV

[7] = target: T4, Microphthalmia-associated transcription factor (Homo sapiens, UniProt O75030); experiment: reducers of TRPM1 reporter luminescence, concentration series – cell-based, SK-MEL-5, cherry-picked, set 3, MITF inhibitor project, dose response (AID 493073); format: functional;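 also: SK-MEL-5 melanoma cells with luciferase driven by the MITF target TRPM1 promoter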
T4 sequence (O75030 whole entry): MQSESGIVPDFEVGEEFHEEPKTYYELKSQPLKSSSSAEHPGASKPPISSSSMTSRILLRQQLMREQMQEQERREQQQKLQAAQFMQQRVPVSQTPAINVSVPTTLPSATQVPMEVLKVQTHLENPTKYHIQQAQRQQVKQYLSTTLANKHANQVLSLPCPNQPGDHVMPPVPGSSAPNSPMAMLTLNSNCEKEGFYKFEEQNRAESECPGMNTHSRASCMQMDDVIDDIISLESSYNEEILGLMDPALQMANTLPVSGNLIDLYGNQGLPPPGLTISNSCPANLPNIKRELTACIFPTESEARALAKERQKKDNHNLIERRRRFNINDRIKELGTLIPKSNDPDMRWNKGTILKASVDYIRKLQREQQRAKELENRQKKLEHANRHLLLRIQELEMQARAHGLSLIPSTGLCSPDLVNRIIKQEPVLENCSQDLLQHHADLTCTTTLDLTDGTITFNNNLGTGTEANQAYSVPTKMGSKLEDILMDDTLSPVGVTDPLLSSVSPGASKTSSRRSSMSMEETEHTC

[8] = Trypanosoma cruzi growth suppression in host cells – NIH3T3 host cells, beta-gal luminescence, confirmation (AID 2044); format: functional, cell-based;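 also: intracellular parasites grown in NIH/3T3 mouse fibroblasts as host cells; luminescent beta-galactosidase reporter signal from transgenic T. cruzi replicating inside host cells; inhibitors lower the luminescence signal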
[9] = luciferase reporter signal suppression in cells – H4 neuroglioma cells, luminescence, dose response (AID 1990); format: functional, cell-based
[10] = target: T3, Kappa-type opioid receptor; format: functional; remark: listed apart in the source
[11] = target: T5, Delta-type opioid receptor (Homo sapiens, UniProt P41143); experiment: HTS Image-Based Screen for Agonists of the DOR Receptor. [Related pubchem assays (depositor defined):AID1777, AID1786, AID2133]; format: functional
T5 sequence (P41143 whole entry): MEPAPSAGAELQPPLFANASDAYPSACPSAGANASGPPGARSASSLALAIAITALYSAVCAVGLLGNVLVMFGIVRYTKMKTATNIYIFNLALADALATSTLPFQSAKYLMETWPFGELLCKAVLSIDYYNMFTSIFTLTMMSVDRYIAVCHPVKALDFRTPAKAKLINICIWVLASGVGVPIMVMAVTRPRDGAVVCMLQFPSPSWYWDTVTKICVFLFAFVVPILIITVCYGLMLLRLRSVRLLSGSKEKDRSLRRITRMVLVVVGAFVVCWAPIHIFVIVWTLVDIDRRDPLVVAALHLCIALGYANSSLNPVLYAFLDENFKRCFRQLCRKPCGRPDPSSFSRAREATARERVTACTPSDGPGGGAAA

[12] = target: G-protein coupled receptor 55 (Homo sapiens, UniProt Q9Y2T6); experiment: selective activators of receptor GPR55 – imaging, U2OS cells, beta-arrestin-GFP redistribution, primary screen (AID 1961); format: functional
Sequence of G-protein coupled receptor 55 (Q9Y2T6 whole entry): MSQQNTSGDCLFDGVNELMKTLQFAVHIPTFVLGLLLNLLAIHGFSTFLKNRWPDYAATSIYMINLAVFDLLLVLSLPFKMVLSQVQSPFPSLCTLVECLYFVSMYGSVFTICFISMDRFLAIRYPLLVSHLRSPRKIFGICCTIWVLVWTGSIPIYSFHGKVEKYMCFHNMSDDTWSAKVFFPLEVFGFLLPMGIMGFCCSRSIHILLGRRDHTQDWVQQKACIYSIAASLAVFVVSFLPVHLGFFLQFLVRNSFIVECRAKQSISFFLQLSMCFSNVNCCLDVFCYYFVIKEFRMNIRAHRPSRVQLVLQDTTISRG

[13] = target: T5, Delta-type opioid receptor; experiment: HTS Image-Based Screen for Antagonists of the DOR Receptor. [Related pubchem assays (depositor defined):AID1777, AID1785, AID1786, AID2133]; format: functional
[14] = Luminescence Cell-Based Dose Response HTS to Identify Inhibitors of 5'UTR Stem-Loop Driven Prion Protein mRNA Translation in H4 Neuroglioblastoma Cells. [Related pubchem assays: 1827 (Project Summary), 1813 (Primary HTS)]; format: functional
[15] = target: T6, Heat shock factor protein 1 (Mus musculus, UniProt P38532); experiment: enhancement of HSF1-driven luciferase signal – cell-based, NIH3T3, luminescence, dose retest, confirmation (AID 435004); format: functional;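 also: stress induced by proteasome inhibitor MG132 added 30 min after compound; luciferase reporter driven by HSF1 response element in NIH3T3 cells; actives raise luminescence as potentiators of the MG132 stress response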
T6 sequence (P38532 whole entry): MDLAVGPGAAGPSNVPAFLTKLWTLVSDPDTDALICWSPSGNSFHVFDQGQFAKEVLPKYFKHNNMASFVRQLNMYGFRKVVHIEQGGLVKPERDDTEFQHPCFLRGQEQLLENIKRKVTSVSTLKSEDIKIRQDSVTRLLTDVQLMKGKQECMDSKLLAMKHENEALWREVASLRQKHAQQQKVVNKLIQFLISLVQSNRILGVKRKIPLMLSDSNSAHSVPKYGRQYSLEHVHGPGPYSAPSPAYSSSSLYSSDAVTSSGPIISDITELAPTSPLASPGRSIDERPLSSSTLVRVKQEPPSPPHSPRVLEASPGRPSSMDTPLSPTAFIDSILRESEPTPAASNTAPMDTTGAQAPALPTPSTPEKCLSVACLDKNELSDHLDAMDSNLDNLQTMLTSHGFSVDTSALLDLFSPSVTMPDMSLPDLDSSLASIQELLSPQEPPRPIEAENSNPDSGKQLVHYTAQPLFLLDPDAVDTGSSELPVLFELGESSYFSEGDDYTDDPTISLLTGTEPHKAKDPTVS

Row | SMILES | IC50 [1] | IC50 [2] | IC50 [3] | EC50 [4] | EC50 (Mu-type opioid receptor) | EC50 [5] | EC50 (Beta-galactosidase) | IC50 [6] | AC50 [7] | EC50 [8] | EC50 [9] | IC50 [10] | EC50 [11] | EC50 [12] | IC50 [13] | EC50 [14] | EC50 [15]
1 | CCOC(=O)c1cnc2c(Cl)c(Cl)ccc2c1NCCN1CCOCC1 | > 79.4 µM (inactive) | > 79.4 µM (inactive) | > 79.4 µM (inactive) |  |  |  |  |  |  |  |  |  |  |  |  |  | 
2 | COc1ccc(C(=O)/C=C/C(=O)N(CC(=O)NC2CCCCC2)Cc2ccccc2)c(O)c1 |  |  |  | 9.06 µM (active) | > 32 µM (inactive) | > 60 µM (inconclusive) | > 31.5 µM (inactive) | 8.34 µM | 5.24 µM (active) | 1.64 µM (active) | > 60 µM (not active) | 4.97 µM (active) | > 32 µM (inactive) | > 32 µM (inactive) | > 32 µM (inactive) | > 120 µM (not active) | > 260 µM (inactive)
